Read-outs that look alike come from different tables or passages of the source.
Columns and labels:
HDAC7 = target: T1, HDAC7 (Homo sapiens, UniProt Q8WUI4); assay: HDAC biochemical activity measurement (fluorescent substrate deacetylation);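 note: fluorogenic deacetylation assay using acetyl-lysine substrate at 20 µM, enzyme and compound incubated 30 min at 37 °C, then developer added, fluorescence read at 360/460 nm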; details: HDAC7; 37° C. 30 minutes
T1 sequence (Q8WUI4 1-952): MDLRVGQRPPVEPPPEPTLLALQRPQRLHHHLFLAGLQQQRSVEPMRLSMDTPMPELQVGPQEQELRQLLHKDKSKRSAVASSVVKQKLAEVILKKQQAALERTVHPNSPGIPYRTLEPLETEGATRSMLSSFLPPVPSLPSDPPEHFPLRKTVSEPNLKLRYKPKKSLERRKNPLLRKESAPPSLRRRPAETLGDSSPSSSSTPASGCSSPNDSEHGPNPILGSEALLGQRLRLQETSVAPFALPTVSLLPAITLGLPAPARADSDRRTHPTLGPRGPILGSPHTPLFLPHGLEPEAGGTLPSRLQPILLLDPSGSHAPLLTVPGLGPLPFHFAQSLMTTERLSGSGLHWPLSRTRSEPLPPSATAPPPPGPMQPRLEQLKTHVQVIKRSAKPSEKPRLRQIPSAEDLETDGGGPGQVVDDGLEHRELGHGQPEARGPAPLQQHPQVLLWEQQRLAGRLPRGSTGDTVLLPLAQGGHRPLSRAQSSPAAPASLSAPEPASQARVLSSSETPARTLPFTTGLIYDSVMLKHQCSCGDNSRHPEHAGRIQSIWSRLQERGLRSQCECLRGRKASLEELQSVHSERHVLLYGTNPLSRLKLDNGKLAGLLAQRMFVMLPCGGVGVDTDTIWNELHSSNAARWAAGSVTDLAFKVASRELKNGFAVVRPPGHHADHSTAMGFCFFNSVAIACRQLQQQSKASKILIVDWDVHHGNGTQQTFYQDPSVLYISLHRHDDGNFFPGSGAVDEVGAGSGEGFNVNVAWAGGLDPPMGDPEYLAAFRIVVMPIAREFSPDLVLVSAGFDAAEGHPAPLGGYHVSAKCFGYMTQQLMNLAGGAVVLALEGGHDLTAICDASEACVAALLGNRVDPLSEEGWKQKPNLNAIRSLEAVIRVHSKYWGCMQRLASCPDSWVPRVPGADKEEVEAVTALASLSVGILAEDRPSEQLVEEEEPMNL

[1] = test system: DU145 (human prostate cancer cells); assay: MTT cancer cell growth inhibition; type: cell-based; details: Homo sapiens, DU-145, 72 h, MTT, 72 hours incubation, read-out: GI50 Du1
Outline: (§1)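 Read-out was formazan absorbance at 570 nm after a 4 h MTT step and DMSO solubilisation, converted to cell viability and fitted for GI50. Beforehand, cells (1500/well, overnight attachment) were treated with compound at 10^−5 to 10^−10 M for 72 h at 37° C.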

[2] = test system: MOLT-4 (human acute lymphoblastic leukemia cells); assay: MTT cancer cell growth inhibition; type: cell-based; details: Homo sapiens, MOLT-4, 72 h, MTT, 72 hours incubation, read-out: GI50 Mol
Outline: as §1

[3] = test system: Hela (human cervical cancer cells); assay: MTT cancer cell growth inhibition; type: cell-based; details: Homo sapiens, HeLa, 72 h, MTT, 72 hours incubation, read-out: GI50 Hela
Outline: as §1

[4] = test system: HCC827 (human non-small cell lung cancer cells); assay: MTT cancer cell growth inhibition; type: cell-based; details: Homo sapiens, HCC827, 72 h, MTT, 72 hours incubation, HCC827 cells; read-out: GI50 HCC827
Outline: as §1

[5] = test system: SGC-7901 (human gastric cancer cells); assay: MTT cancer cell growth inhibition; type: cell-based; details: Homo sapiens, SGC-7901, 72 h, MTT, 72 hours incubation, SGC-7901 cells; read-out: GI50 SGC-7901
Outline: as §1

[6] = test system: PANC-1 (Pac-1, human pancreatic cancer cells); assay: MTT cancer cell growth inhibition; type: cell-based; details: Homo sapiens, PANC-1, 72 h, MTT, 72 hours incubation, read-out: GI50 PAN
Outline: as §1

[7] = test system: BGC-823 (human gastric cancer cells); assay: MTT cancer cell growth inhibition; type: cell-based; details: Homo sapiens, BGC-823, 72 h, MTT, 72 hours incubation, read-out: GI50 BG
Outline: as §1

[8] = test system: H1975 (non-small cell lung adenocarcinoma); assay: MTT cancer cell growth inhibition; type: cell-based; details: Homo sapiens, NCI-H1975, 72 h, MTT, 72 hours incubation, H1975 cells; read-out: GI50 H1975
Outline: as §1

[9] = test system: MCF-7 (human breast cancer cells); assay: MTT cancer cell growth inhibition; type: cell-based; details: Homo sapiens, MCF7, 72 h, 72 hours incubation, read-out: GI50 MCF
Outline: as §1

[10] = test system: U937 (human leukemia cells); assay: MTT cancer cell growth inhibition; type: cell-based; details: Homo sapiens, U-937, 72 h, MTT, 72 hours incubation, read-out: GI50 U93
Outline: as §1

[11] = test system: MDA-MB-231 (breast cancer cells); assay: MTT cancer cell growth inhibition; type: cell-based; details: Homo sapiens, MDA-MB-231, 72 h, read-out: GI50 MDA-MB-231, MTT, 72 hours incubation, MDA-MB-231 cells
Outline: as §1

[12] = test system: lncap (prostate cancer cells); assay: MTT cancer cell growth inhibition; type: cell-based; details: Homo sapiens, LNCaP, 72 h, MTT, 72 hours incubation, read-out: GI50 lnca
Outline: as §1

[13] = test system: Huh-7 (human hepatoma cells); assay: MTT cancer cell growth inhibition; type: cell-based; details: Homo sapiens, Huh-7, 72 h, MTT, 72 hours incubation, Huh-7 cells; read-out: GI50 Huh-7
Outline: as §1

[14] = test system: N-87 (human gastric cancer cells); assay: MTT cancer cell growth inhibition; type: cell-based; details: Homo sapiens, 72 h, MTT, 72 hours incubation, N-87 cells; read-out: GI50 N-87
Outline: as §1

[15] = test system: Bel-7402 (human hepatoma cells); assay: MTT cancer cell growth inhibition; type: cell-based; details: Homo sapiens, Bel-7402, 72 h, MTT, 72 hours incubation, Bel-7402 cells; read-out: GI50 Bel-7402
Outline: as §1

[16] = test system: KBM-5 (human chronic myelogenous leukemia); assay: MTT cancer cell growth inhibition; type: cell-based; details: Homo sapiens, KBM5, 72 h, MTT, 72 hours incubation, KBM-5 cells; read-out: GI50 KBM-5
Outline: as §1

[17] = test system: A549 (human lung cancer cells); assay: MTT cancer cell growth inhibition; type: cell-based; details: Homo sapiens, A549, 72 h, MTT, 72 hours incubation, read-out: GI50 A54
Outline: as §1

[18] = test system: KBM5-T315I (human chronic myelogenous leukemia); assay: MTT cancer cell growth inhibition; type: cell-based; details: Homo sapiens, 72 h, MTT, 72 hours incubation, KBM5-T315I cells; read-out: GI50 KBM5-T315I
Outline: as §1

[19] = test system: K562 (human leukemia cells); assay: MTT cancer cell growth inhibition; type: cell-based; details: Homo sapiens, K562, 72 h, MTT, 72 hours incubation, K562 cells; read-out: GI50 K562
Outline: as §1

[20] = test system: HT1080 (human fibrosarcoma cells); assay: MTT cancer cell growth inhibition; type: cell-based; details: Homo sapiens, HT-1080, 72 h, MTT, 72 hours incubation, read-out: GI50 HT1
Outline: as §1

Row | SMILES | IC50 HDAC7 (HDAC7) | GI50 [4] | GI50 [5] | GI50 [8] | GI50 [11] | GI50 [13] | GI50 [14] | GI50 [15] | GI50 [16] | GI50 [18] | GI50 [19] | GI50 [1] | GI50 [2] | GI50 [3] | GI50 [6] | GI50 [7] | GI50 [9] | GI50 [10] | GI50 [12] | GI50 [17] | further results
1 | C/C=C1\NC(=O)c2nc(ccc2SCC)CNC(=O)C[C@@H](/C=C/CCSC(=O)CCCCCCC)OC(=O)[C@H](C(C)C)NC1=O [Compound 247] | no activity | 41 nM | 65 nM | 32 nM | 38 nM | 53 nM | 23 nM | 95 nM | 32 nM | 45 nM | 33 nM |  |  |  |  |  |  |  |  |  | GI50 ([1]; DU145 cells): 20 nM; GI50 ([2]; MOLT-4 cells): 30 nM; GI50 ([3]; Hela cells): 50 nM; GI50 ([6]; PANC-1 cells): 50 nM; GI50 ([7]; BGC-823 cells): 10 nM; GI50 ([9]; MCF-7 cells): 50 nM; GI50 ([10]; U937 cells): 70 nM; GI50 ([12]; lncap cells): 20 nM; GI50 ([17]; A549 cells): 60 nM; GI50 ([20]; HT1080 cells): 60 nM
2 | C/C=C1\NC(=O)c2nc(ccc2F)CNC(=O)C[C@@H](/C=C/CCSC(=O)CCC)OC(=O)[C@H](C(C)C)NC1=O [Example 42] | no activity | 35 nM | 32 nM | 35 nM | 35 nM | 19 nM | 84 nM | 55 nM | 46 nM | 53 nM | 57 nM | 100 nM | 80 nM | 50 nM | 40 nM | 30 nM | 100 nM | 70 nM | 50 nM | 40 nM | GI50 [20]: 40 nM
3 | C/C=C1\NC(=O)c2ccc(SC)c(n2)CNC(=O)C[C@@H](/C=C/CCSC(C)=O)OC(=O)[C@H](CCCCN)NC1=O [Compound 194] | no activity | 35 nM | 43 nM | 23 nM | 27 nM | 84 nM | 36 nM | 27 nM | 51 nM | 25 nM | 29 nM |  |  |  |  |  |  |  |  |  | GI50 ([1]; DU145 cells): 30 nM; GI50 ([2]; MOLT-4 cells): 30 nM; GI50 ([3]; Hela cells): 50 nM; GI50 ([6]; PANC-1 cells): 40 nM; GI50 ([7]; BGC-823 cells): 50 nM; GI50 ([9]; MCF-7 cells): 40 nM; GI50 ([10]; U937 cells): 60 nM; GI50 ([12]; lncap cells): 20 nM; GI50 ([17]; A549 cells): 30 nM; GI50 ([20]; HT1080 cells): 10 nM
4 | C/C=C1\NC(=O)c2cc(F)cc(n2)CNC(=O)C[C@@H](/C=C/CCSC(=O)CCCCCCC)OC(=O)[C@H](C(C)C)NC1=O [Example 31] | no activity | 57 nM | 77 nM | 42 nM | 19 nM | 19 nM | 52 nM | 57 nM | 92 nM | 63 nM | 27 nM | 20 nM | 10 nM | 90 nM | 50 nM | 50 nM | 60 nM | 40 nM | 10 nM | 70 nM | GI50 [20]: 50 nM
5 | C/C=C1\NC(=O)c2nccc(n2)CNC(=O)C[C@@H](/C=C/CCS)OC(=O)[C@H](C)NC1=O [Compound 144] | no activity | 12 nM | 41 nM | 38 nM | 37 nM | 23 nM | 29 nM | 35 nM | 11 nM | 127 nM | 11 nM | 60 nM | 70 nM | 50 nM | 70 nM | 70 nM | 60 nM | 70 nM | 50 nM | 70 nM | GI50 [20]: 70 nM
